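At the GI50, growth is halved. Definition used: TGI = concentration required for complete inhibition of growth.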
Columns and labels:
Assay in all cases: inhibition of tumour cell growth, NCI panel, 384-well format
786-0 renal = system: 786-0 renal
A498 renal = system: A498 renal
A549 NSCLC = system: A549 NSCLC
ACHN renal = system: ACHN renal
BT-549 breast = system: BT-549 breast
CAKI-1 renal = system: CAKI-1 renal
CCRF-CEM leukemia = system: CCRF-CEM leukemia
COLO 205 colon = system: COLO 205 colon
DU-145 prostate = system: DU-145 prostate
EKVX NSCLC = system: EKVX NSCLC
HCC-2998 colon = system: HCC-2998 colon
HCT-116 colon = system: HCT-116 colon
HCT-15 colon = system: HCT-15 colon
HL-60(TB) leukemia = system: HL-60(TB) leukemia
HOP-62 NSCLC = system: HOP-62 NSCLC
HOP-92 NSCLC = system: HOP-92 NSCLC
HS 578T breast = system: HS 578T breast
HT29 colon = system: HT29 colon
IGROV1 ovarian = system: IGROV1 ovarian
K-562 leukemia = system: K-562 leukemia
KM12 colon = system: KM12 colon
LOX IMVI melanoma = system: LOX IMVI melanoma
M14 melanoma = system: M14 melanoma
MCF7 breast = system: MCF7 breast
MDA-MB-231 breast = system: MDA-MB-231 breast
MDA-MB-435 melanoma = system: MDA-MB-435 melanoma
MDA-MB-468 breast = system: MDA-MB-468 breast
MOLT-4 leukemia = system: MOLT-4 leukemia
NCI-H226 lung = system: NCI-H226 lung
NCI-H23 lung = system: NCI-H23 lung
NCI-H322M lung = system: NCI-H322M lung
NCI-H460 NSCLC = system: NCI-H460 NSCLC
NCI-H522 lung = system: NCI-H522 lung
NCI/ADR-RES ovarian = system: NCI/ADR-RES ovarian
OVCAR-3 ovarian = system: OVCAR-3 ovarian
OVCAR-4 ovarian = system: OVCAR-4 ovarian
OVCAR-5 ovarian = system: OVCAR-5 ovarian
OVCAR-8 ovarian = system: OVCAR-8 ovarian
PC-3 prostate = system: PC-3 prostate
RPMI-8226 leukemia = system: RPMI-8226 leukemia
RXF 393 renal = system: RXF 393 renal
SF-268 CNS = system: SF-268 CNS
SF-295 CNS = system: SF-295 CNS
SF-539 CNS = system: SF-539 CNS
SK-MEL-28 melanoma = system: SK-MEL-28 melanoma
SK-MEL-5 melanoma = system: SK-MEL-5 melanoma
SK-OV-3 ovarian = system: SK-OV-3 ovarian
SN12C renal = system: SN12C renal
SNB-19 CNS = system: SNB-19 CNS
SR leukemia = system: SR leukemia
SW-620 colon = system: SW-620 colon
TK-10 renal = system: TK-10 renal
U251 glioblastoma = system: U251 glioblastoma
UACC-257 melanoma = system: UACC-257 melanoma
UO-31 renal = system: UO-31 renal
MALME-3M melanoma = system: MALME-3M melanoma
SNB-75 CNS = system: SNB-75 CNS
T-47D breast = system: T-47D breast
UACC-62 melanoma = system: UACC-62 melanoma

With O=C(Cc1ccc(-c2ccc(OCCN3CCOCC3)cc2)cn1)NCc1ccccc1 the GI50 ([…]-0 renal) was 32.3 nM, the TGI (786-0 renal) was 220 nM and the GI50 (A498 renal) was 31.8 nM. The TGI (A498 renal) was 625 nM, the GI50 (A549 NSCLC) was 50.2 nM and the TGI (A549 NSCLC) was > 100000 nM. For the same compound, the GI50 (ACHN renal) was 80.1 nM, the TGI (ACHN renal) was 45100 nM and the GI50 (BT-549 breast) was 28.3 nM. For the same compound, the TGI (BT-549 breast) was 179 nM, the GI50 (CAKI-1 renal) was 40.1 nM and the TGI (CAKI-1 renal) was > 100000 nM. It also gave a GI50 (CCRF-CEM leukemia) of 18.4 nM, a TGI (CCRF-CEM leukemia) of 33.3 nM and a GI50 (COLO 205 colon) of 16.3 nM. The TGI (COLO 205 colon) was 34.5 nM, the GI50 (DU-145 prostate) was 30.2 nM and the TGI (DU-145 prostate) was 174 nM. It also gave a GI50 (EKVX NSCLC) of 42.4 nM, a TGI (EKVX NSCLC) of 99400 nM and a GI50 (HCC-2998 colon) of 20.4 nM. For the same compound, the TGI (HCC-2998 colon) was 133 nM, the GI50 (HCT-116 colon) was 31.8 nM and the TGI (HCT-116 colon) was 709 nM. For the same compound, the GI50 (HCT-15 colon) was 32.1 nM, the TGI (HCT-15 colon) was 163 nM and the GI50 (HL-60(TB) leukemia) was 16.1 nM. It also gave a TGI (HL-60(TB) leukemia) of 29.7 nM, a GI50 (HOP-62 NSCLC) of 29.8 nM and a TGI (HOP-62 NSCLC) of 3420 nM. For the same compound, the GI50 (HOP-92 NSCLC) was 38.1 nM, the TGI (HOP-92 NSCLC) was 2950 nM and the GI50 (HS 578T breast) was 18.6 nM. For the same compound, the TGI (HS 578T breast) was 38.9 nM, the GI50 (HT29 colon) was 28.3 nM and the TGI (HT29 colon) was > 100000 nM. It also gave a GI50 (IGROV1 ovarian) of 61.2 nM, a TGI (IGROV1 ovarian) of 54400 nM and a GI50 (K-562 leukemia) of 19.8 nM. The TGI (K-562 leukemia) was 54.1 nM, the GI50 (KM12 colon) was 30 nM and the TGI (KM12 colon) was 2010 nM. The GI50 (LOX IMVI melanoma) was 49.8 nM, the TGI (LOX IMVI melanoma) was 298 nM and the GI50 (M14 melanoma) was 18.5 nM. For the same compound, the TGI (M14 melanoma) was 42.2 nM, the GI50 (MCF7 breast) was 49.9 nM and the TGI (MCF7 breast) was 7190 nM. The GI50 (MDA-MB-231 breast) was 53.2 nM, the TGI (MDA-MB-231 breast) was > 100000 nM and the GI50 (MDA-MB-435 melanoma) was 15.1 nM. For the same compound, the TGI (MDA-MB-435 melanoma) was 30.7 nM, the GI50 (MDA-MB-468 breast) was 15.6 nM and the TGI (MDA-MB-468 breast) was 30.6 nM. For the same compound, the GI50 (MOLT-4 leukemia) was 15.3 nM, the TGI (MOLT-4 leukemia) was 29.8 nM and the GI50 (NCI-H226 lung) was 34.6 nM. The TGI (NCI-H226 lung) was 220 nM, the GI50 (NCI-H23 lung) was 22.8 nM and the TGI (NCI-H23 lung) was 60.3 nM. For the same compound, the GI50 (NCI-H322M lung) was 38.1 nM, the TGI (NCI-H322M lung) was 71600 nM and the GI50 (NCI-H460 NSCLC) was 20.2 nM. It also gave a TGI (NCI-H460 NSCLC) of 45.4 nM, a GI50 (NCI-H522 lung) of 17.6 nM and a TGI (NCI-H522 lung) of 44.9 nM. The GI50 (NCI/ADR-RES ovarian) was 17.7 nM, the TGI (NCI/ADR-RES ovarian) was 39.3 nM and the GI50 (OVCAR-3 ovarian) was 17.4 nM. It also gave a TGI (OVCAR-3 ovarian) of 41.7 nM, a GI50 (OVCAR-4 ovarian) of 41.1 nM and a TGI (OVCAR-4 ovarian) of 39700 nM. The GI50 (OVCAR-5 ovarian) was 80 nM, the TGI (OVCAR-5 ovarian) was > 100000 nM and the GI50 (OVCAR-8 ovarian) was 31.4 nM. The TGI (OVCAR-8 ovarian) was 134 nM, the GI50 (PC-3 prostate) was 34.5 nM and the TGI (PC-3 prostate) was > 100000 nM. For the same compound, the GI50 (RPMI-8226 leukemia) was 14.2 nM, the TGI (RPMI-8226 leukemia) was 27.7 nM and the GI50 (RXF 393 renal) was 17.5 nM. For the same compound, the TGI (RXF 393 renal) was 39.7 nM, the GI50 (SF-268 CNS) was 35.2 nM and the TGI (SF-268 CNS) was 513 nM. The GI50 (SF-295 CNS) was 15.7 nM, the TGI (SF-295 CNS) was 38 nM and the GI50 (SF-539 CNS) was 21.4 nM. The TGI (SF-539 CNS) was 53.7 nM, the GI50 (SK-MEL-28 melanoma) was 38.6 nM and the TGI (SK-MEL-28 melanoma) was > 100000 nM. For the same compound, the GI50 (SK-MEL-5 melanoma) was 20.3 nM, the TGI (SK-MEL-5 melanoma) was 46.6 nM and the GI50 (SK-OV-3 ovarian) was 32.7 nM. The TGI (SK-OV-3 ovarian) was 2670 nM, the GI50 (SN12C renal) was 38.9 nM and the TGI (SN12C renal) was 16600 nM. It also gave a GI50 (SNB-19 CNS) of 41.3 nM, a TGI (SNB-19 CNS) of 3110 nM and a GI50 (SR leukemia) of 12.3 nM. The TGI (SR leukemia) was 25.6 nM, the GI50 (SW-620 colon) was 30.7 nM and the TGI (SW-620 colon) was > 100000 nM. For the same compound, the GI50 (TK-10 renal) was 39.9 nM, the TGI (TK-10 renal) was 45900 nM and the GI50 (U251 glioblastoma) was 32 nM. For the same compound, the TGI (U251 glioblastoma) was 150 nM, the GI50 (UACC-257 melanoma) was 45.7 nM and the TGI (UACC-257 melanoma) was 43700 nM. For the same compound, the GI50 (UO-31 renal) was 66.5 nM and the TGI (UO-31 renal) was > 100000 nM.

Compound O=c1[nH]c(=O)n(C2CC(O)C(CO)O2)cc1F (configuration not stated) has a GI50 ([…]-0 renal) of 69.9 nM, a TGI (A498 renal) of 59500 nM and a GI50 (A549 NSCLC) of 31.8 nM. It also gave a GI50 (ACHN renal) of 30.2 nM, a TGI (BT-549 breast) of 2780 nM and a GI50 (CAKI-1 renal) of 69.5 nM. The GI50 (CCRF-CEM leukemia) was 23.8 nM, the TGI (CCRF-CEM leukemia) was 97.2 nM and the GI50 (DU-145 prostate) was 35.9 nM. The GI50 (HCT-116 colon) was 52.9 nM, the TGI (HCT-116 colon) was 40600 nM and the GI50 (HCT-15 colon) was 55.1 nM. The GI50 (HL-60(TB) leukemia) was 25.5 nM, the TGI (HL-60(TB) leukemia) was 115 nM and the GI50 (HOP-92 NSCLC) was 2480 nM. The GI50 (HS 578T breast) was 28.2 nM, the TGI (HS 578T breast) was 171 nM and the GI50 (HT29 colon) was 53.9 nM. For the same compound, the GI50 (IGROV1 ovarian) was 559 nM, the GI50 (K-562 leukemia) was 351 nM and the TGI (K-562 leukemia) was 9400 nM. For the same compound, the GI50 (KM12 colon) was 844 nM, the GI50 (LOX IMVI melanoma) was 35.4 nM and the GI50 (M14 melanoma) was 104 nM. The GI50 (MALME-3M melanoma) was 3990 nM, the GI50 (MDA-MB-231 breast) was 444 nM and the GI50 (MDA-MB-435 melanoma) was 1380 nM. It also gave a GI50 (MDA-MB-468 breast) of 13.7 nM, a TGI (MDA-MB-468 breast) of 53.7 nM and a TGI (MOLT-4 leukemia) of 15.7 nM. For the same compound, the GI50 (NCI-H23 lung) was 112 nM, the GI50 (NCI-H322M lung) was 345 nM and the GI50 (NCI/ADR-RES ovarian) was 214 nM. It also gave a GI50 (OVCAR-4 ovarian) of 27400 nM, a GI50 (OVCAR-5 ovarian) of 321 nM and a GI50 (OVCAR-8 ovarian) of 79.8 nM. For the same compound, the GI50 (PC-3 prostate) was 90.4 nM, the GI50 (RXF 393 renal) was 2920 nM and the TGI (RXF 393 renal) was 25900 nM. The GI50 (SF-268 CNS) was 13 nM, the GI50 (SF-295 CNS) was 13.2 nM and the TGI (SF-295 CNS) was 53.2 nM. The GI50 (SF-539 CNS) was 11.2 nM, the TGI (SF-539 CNS) was 102 nM and the GI50 (SK-MEL-28 melanoma) was 101 nM. It also gave a TGI (SK-MEL-28 melanoma) of 3610 nM, a GI50 (SK-OV-3 ovarian) of 112 nM and a GI50 (SN12C renal) of 28.9 nM. The TGI (SN12C renal) was 238 nM, the GI50 (SNB-19 CNS) was 39.4 nM and the GI50 (SNB-75 CNS) was 16.9 nM. The GI50 (SW-620 colon) was 28.7 nM, the GI50 (T-47D breast) was 11500 nM and the GI50 (TK-10 renal) was 721 nM. It also gave a GI50 (U251 glioblastoma) of 112 nM, a GI50 (UACC-62 melanoma) of 177 nM and a GI50 (UO-31 renal) of 26.1 nM.

— PubChem BioAssay (NCI)
